Measured values: patent US9023853B2, “Janus kinase 2 (JAK2) inhibitor for the treatment of lupus” (Cephalon, Inc., priority 2010, dated 2015)
Values joined by “and” are separate entries in the source; they are usually repeats but may differ in a detail not shown here. Equal entries are not always repeated. “Also recorded” adds a separate entry of the source.

Experiments:
[1] = tested on: NZM mice; experiment: Renal histopathology kidney IC-GN scoring in NZM mice; type: in vivo, mouse; settings: for B: Glomerular Cellularity / C: Glomerular Necrosis / D: Glomerular Sclerosis / E: Interstitial Infiltration / F: Tubular Atrophy / G: Interstitial Fibrosis / H: Vasculitis: NZM individual mouse; for Glomerular Cellularity / Glomerular Necrosis / Glomerulosclerosis / Interstitial Fibrosis / Interstitial Infiltration / Tubular Atrophy / Vasculitis: NZM kidney score (grade 0-5), mean
Protocol: For histological analyses, the left kidney and lung (NZM model only) from each animal was removed and fixed in 10% buffered neutral 10% formalin (EMD) for 48 hours on an orbital rocker at 25° C., then washed overnight with running dH2O and stored in 70% ethanol at 4° C. until ready to be processed. Kidney stains used for histological analyses included hematoxylin and eosin (H&E), Periodic Acid Schiff (PAS) and Trichrome stains (Wistar Institute, Philadelphia, Pa.). All 3 stained sections were used by the pathologist for scoring purposes. All histological scoring was performed blinded and by an independent board certified veterinary medical pathologist (Julie Engiles, VMD, DACVP; University of Pennsylvania). Multiple stains were used to determine score values. Images in FIGS. 8, 19 and 20 show worst affected area of section selected blindly by the pathologist.
Kidney IC-GN Scoring Method (Smith, Dong et al. 2007):
1. […]
2. […]
3. […]
4. […]
5. […]
6. […]
7. […]
Also considered effacement of the glomerular tuft by PAS positive, Trichrome negative material necrosis. • Glomerular sclerosis was defined by increased fibroplasia or fibrosis within the glomerular tuft or capsule. […] Pharmacodynamic (PD) Analysis
Age mated, female, NZM or NZW/LacJ, mice were matured for the study of lupus nephritis for a total of 7 months or 210 days at which time urine was collected for proteinuria detection. Mice with 0.5-1.0 mg/ml of urine protein as determined by an optical density-based total protein precipitation assay and cross-checked for 30-300 mg/dl of protein as determined by a stick assay were considered proteinuria positive and selected for study entry. Groups were normalized to contain a Gaussian distribution of proteinuria positive animals (i.e., ⅓ low proteinuria, ⅓ medium, ⅓ high) then randomized between groups before ear marking and taking baseline measures including urine and serum collections. A total of five mice from the total population were randomly selected for baseline kidney histology evaluation. Treatments and tests for each group are as described in FIG. 12. Briefly, with a minimum of 10 mice per group, COMPOUND A was administered at 100 mg/kg or 55 mg/kg, both twice a day and orally. […] Vehicle included 3% DMSO, 10% Solutol and 87% PBS. […] End-stage lupus nephritis was evaluated by histopathology and scored by a board certified pathologist for the assessment of total renal damage in diseased animals using the scoring method described by Smith et al (Smith, Dong et al. 2007). […] Day-98 or “end of treatment/study” represents 310 days of age for the NZM animals.

[2] = tested on: MRL/lpr mice; experiment: Renal histopathology kidney IC-GN scoring in MRL/lpr mice; type: in vivo, mouse; settings: MRL/lpr kidney score (grade 0-5), mean; Dex 1.5 mg/kg
Protocol: Kidney stains used for histological analyses included hematoxylin and eosin (H&E), Periodic Acid Schiff (PAS) and Trichrome stains (Wistar Institute, Philadelphia, Pa.). All 3 stained sections were used by the pathologist for scoring purposes. All histological scoring was performed blinded and by an independent board certified veterinary medical pathologist (Julie […]; University of Pennsylvania). Multiple stains were used to determine score values. Images in FIGS. 8, 19 and 20 show worst affected area of section selected blindly by the pathologist. Kidney IC-GN Scoring Method (Smith, Dong et al. 2007): 1. Glomerular cellularity-Score 1-5: Null, low, moderate, high, severe […] Glomerular necrosis-Score 1-5: Null, low, moderate, high, severe […] Glomerulosclerosis-Score 1-5: Null, low, moderate, high, severe […] Null, low, moderate, high, severe 5. […] Null, low, moderate, high, severe 6. […] Null, low, moderate, high, severe 7. […] Null, low, moderate, high, severe Specific Pathologist Definitions: • Necrosis was defined by the presence of nuclear debris/pyknosis within the glomerular tuft indicative of “necrosis.” In many samples, this was a very mild, rare finding within only a very few segments of the glomerular tuft. Also considered effacement of the glomerular tuft by PAS positive, Trichrome negative material necrosis. • Glomerular sclerosis was defined by increased fibroplasia or fibrosis within the glomerular tuft or capsule. […] Most of the vascular changes were mild and could be considered “arteriosclerosis” characterized by proliferation of the smooth muscle cells, and hyalinization of the extracellular matrix. This change may reflect hypertension secondary to glomerular pathology. In very few animals was there overt “vasculitis.” Most inflammatory changes were within the walls of the blood vessels, with little to no damage to the endothelium, and no overt hemorrhage/fibrin leakage. Many also have perivascular rims of fibroblasts. […] Mice were tracked on an individual basis.

O=P1(N(CCCl)CCCl)NCCCO1 (centres unmarked) [CTX, cyclophosphamide, reference compound]
B: Glomerular Cellularity ([1]; CTX 50 mpk 1 × wk): ++ (‘++’ moderate (3)); also recorded: + (‘+’ mild (2)); also recorded: − (‘−’ no disease (1))
C: Glomerular Necrosis ([1]; CTX 50 mpk 1 × wk): ++ (‘++’ moderate (3)) (2×) and − (‘−’ no disease (1)) (3×) and + (‘+’ mild (2)) (3×) and _
D: Glomerular Sclerosis ([1]; CTX 50 mpk 1 × wk): +++ (‘+++’ high (4)); also recorded: − (‘−’ no disease (1)); also recorded: ++ (‘++’ moderate (3)); also recorded: + (‘+’ mild (2))
E: Interstitial Infiltration ([1]; CTX 50 mpk 1 × wk): + (‘+’ mild (2)) (2×) and − (‘−’ no disease (1)) (5×) and +++ (‘+++’ high (4)) and _
F: Tubular Atrophy ([1]; CTX 50 mpk 1 × wk): ++++ (‘++++’ severe disease (5)); also recorded: − (‘−’ no disease (1)); also recorded: + (‘+’ mild (2)); also recorded: ++ (‘++’ moderate (3))
G: Interstitial Fibrosis ([1]; CTX 50 mpk 1 × wk): +++ (‘+++’ high (4)); also recorded: − (‘−’ no disease (1)); also recorded: + (‘+’ mild (2))
H: Vasculitis ([1]; CTX 50 mpk 1 × wk): + (‘+’ mild (2)); also recorded: − (‘−’ no disease (1))
Glomerular Cellularity ([1]; CTX 50 mg/kg): 2.0
Glomerular Necrosis ([1]; CTX 50 mg/kg): 1.77
Glomerulosclerosis ([1]; CTX 50 mg/kg): 2.11
Interstitial Fibrosis ([1]; CTX 50 mg/kg): 1.55
Interstitial Infiltration ([1]; CTX 50 mg/kg): 1.55
Tubular Atrophy ([1]; CTX 50 mg/kg): 2.00
Vasculitis ([1]; CTX 50 mg/kg): 1.33

C[C@@H]1C[C@H]2[C@@H]3CCC4=CC(=O)C=C[C@]4(C)[C@@]3(F)[C@@H](O)C[C@]2(C)[C@@]1(O)C(=O)CO [Dex, dexamethasone, reference compound]
B: Glomerular Cellularity ([1]; Dex 1.5 mpk 3 × wk): ++ (‘++’ moderate (3)); also recorded: + (‘+’ mild (2)); also recorded: +++ (‘+++’ high (4))
C: Glomerular Necrosis ([1]; Dex 1.5 mpk 3 × wk): ++ (‘++’ moderate (3)); also recorded: + (‘+’ mild (2)); also recorded: +++ (‘+++’ high (4))
D: Glomerular Sclerosis ([1]; Dex 1.5 mpk 3 × wk): +++ (‘+++’ high (4)); also recorded: − (‘−’ no disease (1)); also recorded: ++ (‘++’ moderate (3)); also recorded: ++++ (‘++++’ severe disease (5))
E: Interstitial Infiltration ([1]; Dex 1.5 mpk 3 × wk): ++ (‘++’ moderate (3)); also recorded: − (‘−’ no disease (1)); also recorded: +++ (‘+++’ high (4))
F: Tubular Atrophy ([1]; Dex 1.5 mpk 3 × wk): +++ (‘+++’ high (4)); also recorded: − (‘−’ no disease (1))
G: Interstitial Fibrosis ([1]; Dex 1.5 mpk 3 × wk): +++ (‘+++’ high (4)); also recorded: ++ (‘++’ moderate (3)); also recorded: − (‘−’ no disease (1))
H: Vasculitis ([1]; Dex 1.5 mpk 3 × wk): + (‘+’ mild (2)); also recorded: − (‘−’ no disease (1)); also recorded: +++ (‘+++’ high (4))
Glomerular Cellularity ([1]; Dex 1.5 mg/kg): 3.0
Glomerular Necrosis ([1]; Dex 1.5 mg/kg): 3.0
Glomerulosclerosis ([1]; Dex 1.5 mg/kg): 3.42
Interstitial Fibrosis ([1]; Dex 1.5 mg/kg): 2.71
Interstitial Infiltration ([1]; Dex 1.5 mg/kg): 2.71
Tubular Atrophy ([1]; Dex 1.5 mg/kg): 3.14
Vasculitis ([1]; Dex 1.5 mg/kg): 2.42
Glomerular Cellularity [2]: 3.00
Glomerular Necrosis [2]: 2.00
Glomerulosclerosis [2]: 2.00
Interstitial Fibrosis [2]: 1.20
Interstitial Inflitration [2]: 1.60
Tubular Atrophy [2]: 1.20
Vasculitis [2]: 1.40
